Tests used:
K562 cells = experiment: Cell cycle analysis by flow cytometer, K562; type: cell-based; parameters: S %: dose or concentration left out as unconfirmed; conditions: 72 h
Protocol: (§1) Retinoic acid derivatives and fenretinide are prepared as a storage solution of 10 mg/mL by anhydrous ethanol and stored at […] and kept out of light.
(§2) NB4 cells and K562 cells are inoculated with an initial concentration of 2*10^5/ml in the RPMI1640 culture solution having 10% of calf serum (FBS), 100 u/ml of penicillin, 100 Lg/ml of streptomycin and 2 mmol/L of glutamine for suspension culture (37° C., 5% CO2). Change the solution every 2-3 days.
(§3) For the cells above acted by the retinoic acid derivatives and fenretinide ([…]) for 72 h, about 10^6 of them are collected, washed by PBS twice, fixed by 70% of cold ethanol over 24 h, washed by PBS twice, added with 5 ug/ml of propidium iodide for staining and detected by a flow cytometer from which the data are analyzed and processed by the multi-cycle software.

NB4 cells = experiment: Cell cycle analysis by flow cytometer, NB4; type: cell-based; parameters: S %: dose or concentration left out as unconfirmed; conditions: 72 h
Protocol: as §1, §2, §3

apoptosis = conditions: cited from earlier work
[1] = patient, dosage 200 mg/day; cited from earlier work

Structure (SMILES) | G1 % (K562 cells) | G2 % (K562 cells) | S % (K562 cells) | G1 % (NB4 cells) | G2 % (NB4 cells) | S % (NB4 cells) | effective concentration required to generate apoptosis in vivo (apoptosis) | plasma concentration [1]
CC1=C(/C=C/C(C)=C/C=C/C(C)=C/C(=O)Oc2ccccc2C(F)(F)F)C(C)(C)CCC1 [Example 2a-03, (2-trifluoromethylphenyl)-(all-trans)-3,7-dimethyl-9-(2,6,6-trimethyl-1-cyclohexen-1-yl)-2,4,6,8-nonatetraenoate] | 45.1% | 7.6% | 47.3% | 65.72% | 5.54% | 28.74% |  | 
CC1=C(/C=C/C(C)=C/C=C/C(C)=C/C(=O)Nc2cccc(C(F)(F)F)c2)C(C)(C)CCC1 [Example 3a-02, (3-trifluoromethylphenyl)-(all-trans)-3,7-dimethyl-9-(2,6,6-trimethyl-1-cyclohexen-1-yl)-2,4,6,8-nonatetraenoic acid amide] | 39.7% | 6.0% | 54.2% | 45.83% | 2.87% | 51.30% |  | 
CC1=C(/C=C/C(C)=C/C=C/C(C)=C/C(=O)Oc2ccc(N)cc2C(F)(F)F)C(C)(C)CCC1 [Example 4a-02, (4-amino-2-trifluoromethylphenyl)-(all-trans)-3,7-dimethyl-9-(2,6,6-trimethyl-1-cyclohexen-1-yl)-2,4,6,8-nonatetraenoate] | 33.1% | 11.5% | 55.4% | 52.59% | 7.68% | 39.73% |  | 
CC1=C(/C=C/C(C)=C/C=C/C(C)=C/C(=O)Nc2cccc(OC(F)(F)F)c2)C(C)(C)CCC1 [Example 6a-02, (3-trifluoromethoxyphenyl)-(all-trans)-3,7-dimethyl-9-(2,6,6-trimethyl-1-cyclohexen-1-yl)-2,4,6,8-nonatetraenoic acid amide] | 32.2% | 10.9% | 56.8% | 75.47% | 5.52% | 19.01% |  | 
CC1=C(/C=C/C(C)=C/C=C/C(C)=C/C(=O)Nc2ccc(O)cc2)C(C)(C)CCC1 [Fenretinide, reference compound] | 33.5% | 9.0% | 57.5% | 63.25% | 4.03% | 33.72% | 101 µM | lower than 1 μM

From US8110703B2, “Retinoid derivative and pharmaceutical composition and use thereof” (Anhui Medical University, priority 2008, dated 2012)
